According to PubChem BioAssay (NCI):
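Interpolation was linear, between the two tested concentrations surrounding the appropriate level; five concentrations were tested over 48 hours in 96-well plates. TGI denotes the concentration required for complete inhibition of growth.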

Tests used:
Test in all cases: DTP human tumour cell line panel, 48 h
LOX IMVI melanoma = test system: LOX IMVI melanoma
MOLT-4 leukemia = test system: MOLT-4 leukemia
PC-3 prostate = test system: PC-3 prostate
UO-31 renal = test system: UO-31 renal
CAKI-1 renal = test system: CAKI-1 renal
MCF7 breast = test system: MCF7 breast
HOP-92 NSCLC = test system: HOP-92 NSCLC
SK-MEL-5 melanoma = test system: SK-MEL-5 melanoma
RXF 393 renal = test system: RXF 393 renal
SW-620 colon = test system: SW-620 colon
HCT-116 colon = test system: HCT-116 colon
MALME-3M melanoma = test system: MALME-3M melanoma
NCI/ADR-RES ovarian = test system: NCI/ADR-RES ovarian
BT-549 breast = test system: BT-549 breast
786-0 renal = test system: 786-0 renal
UACC-62 melanoma = test system: UACC-62 melanoma
SNB-75 CNS = test system: SNB-75 CNS
M14 melanoma = test system: M14 melanoma
HL-60(TB) leukemia = test system: HL-60(TB) leukemia
SK-MEL-28 melanoma = test system: SK-MEL-28 melanoma
SN12C renal = test system: SN12C renal
NCI-H23 lung = test system: NCI-H23 lung
ACHN renal = test system: ACHN renal
HCT-15 colon = test system: HCT-15 colon
U251 CNS = test system: U251 CNS
IGROV1 ovarian = test system: IGROV1 ovarian
SF-539 CNS = test system: SF-539 CNS
OVCAR-4 ovarian = test system: OVCAR-4 ovarian
SF-268 CNS = test system: SF-268 CNS
SNB-19 CNS = test system: SNB-19 CNS
NCI-H226 lung = test system: NCI-H226 lung
OVCAR-3 ovarian = test system: OVCAR-3 ovarian
NCI-H522 lung = test system: NCI-H522 lung
UACC-257 melanoma = test system: UACC-257 melanoma
SR leukemia = test system: SR leukemia
MDA-MB-435 = test system: MDA-MB-435
SK-OV-3 ovarian = test system: SK-OV-3 ovarian
A549 NSCLC = test system: A549 NSCLC
TK-10 renal = test system: TK-10 renal
KM12 colon = test system: KM12 colon
OVCAR-5 ovarian = test system: OVCAR-5 ovarian
SF-295 CNS = test system: SF-295 CNS
NCI-H460 lung = test system: NCI-H460 lung
MDA-MB-231 breast = test system: MDA-MB-231 breast
SK-MEL-2 melanoma = test system: SK-MEL-2 melanoma
T-47D breast = test system: T-47D breast
K-562 leukemia = test system: K-562 leukemia
DU-145 prostate = test system: DU-145 prostate
HOP-62 NSCLC = test system: HOP-62 NSCLC
HT29 colon = test system: HT29 colon
OVCAR-8 ovarian = test system: OVCAR-8 ovarian
COLO 205 colon = test system: COLO 205 colon
EKVX NSCLC = test system: EKVX NSCLC
HS 578T breast = test system: HS 578T breast

## Oc1cc2c(cc1C(c1ccc3c(c1)OCO3)N1CCN(C(c3ccc4c(c3)OCO4)c3cc4c(cc3O)OCO4)CC1)OCO2 (centres undefined)
LOX IMVI melanoma
  TGI: 18.7 µM
MOLT-4 leukemia
  TGI: 28.4 µM
PC-3 prostate
  TGI: > 100 µM
UO-31 renal
  TGI: 29.3 µM
CAKI-1 renal
  TGI: 47.9 µM
MCF7 breast
  TGI: > 100 µM
HOP-92 NSCLC
  TGI: 78.3 µM
SK-MEL-5 melanoma
  TGI: 37.9 µM
RXF 393 renal
  TGI: > 100 µM
SW-620 colon
  TGI: 25.3 µM
HCT-116 colon
  TGI: 29.1 µM
MALME-3M melanoma
  TGI: 38.9 µM
NCI/ADR-RES ovarian
  TGI: 55.4 µM
BT-549 breast
  TGI: 45.1 µM
786-0 renal
  TGI: 25.8 µM
UACC-62 melanoma
  TGI: 27.5 µM
SNB-75 CNS
  TGI: 13.7 µM
M14 melanoma
  TGI: 27.5 µM
HL-60(TB) leukemia
  TGI: > 100 µM
SK-MEL-28 melanoma
  TGI: 8.46 µM
SN12C renal
  TGI: 31 µM
NCI-H23 lung
  TGI: 35.4 µM
ACHN renal
  TGI: 26.6 µM
HCT-15 colon
  TGI: 20.3 µM
U251 CNS
  TGI: 28.7 µM
IGROV1 ovarian
  TGI: 35.7 µM
SF-539 CNS
  TGI: 33.9 µM
OVCAR-4 ovarian
  TGI: 16.5 µM
SF-268 CNS
  TGI: 59.3 µM
SNB-19 CNS
  TGI: 43.6 µM
NCI-H226 lung
  TGI: 29.6 µM
OVCAR-3 ovarian
  TGI: 30.8 µM
NCI-H522 lung
  TGI: 33.5 µM
UACC-257 melanoma
  TGI: 33.4 µM
SR leukemia
  TGI: 14.6 µM
MDA-MB-435
  TGI: 35 µM
SK-OV-3 ovarian
  TGI: 94.8 µM
A549 NSCLC
  TGI: > 100 µM
TK-10 renal
  TGI: 43.8 µM
KM12 colon
  TGI: 30.8 µM
OVCAR-5 ovarian
  TGI: 32.6 µM
SF-295 CNS
  TGI: 33.2 µM
NCI-H460 lung
  TGI: > 100 µM
MDA-MB-231 breast
  TGI: 29.1 µM
SK-MEL-2 melanoma
  TGI: 41.6 µM
T-47D breast
  TGI: 34.6 µM
K-562 leukemia
  TGI: 65.1 µM
DU-145 prostate
  TGI: 41.3 µM
HOP-62 NSCLC
  TGI: 64.7 µM
HT29 colon
  TGI: 18.8 µM
OVCAR-8 ovarian
  TGI: 29.9 µM
COLO 205 colon
  TGI: 90.8 µM
EKVX NSCLC
  TGI: 98.6 µM
HS 578T breast
  TGI: 30.5 µM
